Data: ChEMBL document CHEMBL1201862, “PubChem BioAssay data set” (2004)
The source made the active and inactive calls.

Legend:
[1] = biological target: G-protein coupled receptor 55 (Homo sapiens, UniProt Q9Y2T6); experiment: GPR55 antagonists blocking LPI-driven arrestin recruitment, primary screen, imaging, U2OS, beta-arrestin-GFP, LPI agonist (AID 2013); type: functional;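 further: antagonist potency measured as reduced agonist-driven arrestin aggregation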
[2] = NIH-3T3 fibroblast cytotoxicity, dose response, cytotoxicity control, cell-based, fluorescence, Alamar Blue, secondary assay (AID 2327); type: functional;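 further: NIH-3T3 mouse fibroblasts cultured with fluconazole at 8 µg/mL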
[3] = biological target: ATP-dependent molecular chaperone HSP82 (Candida albicans (strain WO-1) (Yeast), UniProt C4YTQ8); experiment: loss of DOC-induced GRE-beta-galactosidase reporter signal, dose response, Hsp90 inhibitor project, S. cerevisiae, luminescence (AID 2400); type: functional, cell-based;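 further: beta-galactosidase luminescence from glucocorticoid response element reporter as proxy for Hsp90 function; inhibitor potency where signal loss means Hsp90 inhibition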
[4] = biological target: T1, Serine/threonine-protein phosphatase (Candida dubliniensis (strain CD36 / CBS 7987 / NCPF 3949 / NRRLY-17841) (Yeast), UniProt B9W6M3); experiment: calcineurin pathway inhibitors in yeast reporter, dose response, S. cerevisiae, CDRE-lacZ, luminescence, secondary (AID 2388); type: functional, cell-based;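 further: yeast reporter cells carrying a calcineurin-responsive lacZ construct stimulated with calcium chloride; luminescent beta-galactosidase reporter signal in whole cells rather than isolated phosphatase activity; potency for inhibition where a drop in reporter signal means calcineurin blockade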
T1 sequence (B9W6M3 whole entry): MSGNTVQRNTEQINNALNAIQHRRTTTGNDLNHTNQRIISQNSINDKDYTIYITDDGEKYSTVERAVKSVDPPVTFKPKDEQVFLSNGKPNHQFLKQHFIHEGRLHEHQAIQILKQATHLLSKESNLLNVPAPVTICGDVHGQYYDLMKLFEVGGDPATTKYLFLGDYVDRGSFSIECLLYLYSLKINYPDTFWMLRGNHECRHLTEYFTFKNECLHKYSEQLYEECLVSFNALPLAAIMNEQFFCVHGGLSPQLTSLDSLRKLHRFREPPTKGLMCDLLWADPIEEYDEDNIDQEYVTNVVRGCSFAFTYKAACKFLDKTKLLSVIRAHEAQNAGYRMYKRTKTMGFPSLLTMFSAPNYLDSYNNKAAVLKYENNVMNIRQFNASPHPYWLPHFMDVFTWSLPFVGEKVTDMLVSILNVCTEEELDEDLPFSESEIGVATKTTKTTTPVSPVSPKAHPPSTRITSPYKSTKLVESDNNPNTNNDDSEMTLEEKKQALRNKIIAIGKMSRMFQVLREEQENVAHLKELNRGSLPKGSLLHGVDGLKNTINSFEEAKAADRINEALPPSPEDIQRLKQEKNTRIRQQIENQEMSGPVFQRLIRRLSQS

[5] = C. albicans growth with fluconazole, confirmation, fluorescence, retest (AID 2467); type: functional, cell-based
[6] = biological target: Glyceraldehyde-3-phosphate dehydrogenase (Homo sapiens, UniProt P04406)
Genome polyprotein = Genome polyprotein (dengue virus type 2, UniProt P29990); experiment: Dengue-2 NS5 methyltransferase inhibitors, primary screen, biochemical, confirmation dose response (AID 588689); type: functional
[7] = Vero E6 cell cytotoxicity, dose response, cytotoxicity control for non-replicating M. tuberculosis project, secondary assay (AID 492998); type: functional, VeroE6; details: Vero C1008
[8] = THP-1 cell cytotoxicity, dose response, cytotoxicity control for non-replicating M. tuberculosis project (AID 489025); type: functional
cells = type: functional
Protein RecA = biological target: T2, Protein RecA (Mycobacterium tuberculosis, UniProt P9WHJ3); experiment: Fluorescence Cell-Free Homogeneous Dose Retest to Identify Inhibitors of RecA-Intein Splicing Activity. [Related pubchem assays (depositor defined):AID2097, AID2223, AID489010, AID492950]; type: functional
T2 sequence (P9WHJ3 whole entry): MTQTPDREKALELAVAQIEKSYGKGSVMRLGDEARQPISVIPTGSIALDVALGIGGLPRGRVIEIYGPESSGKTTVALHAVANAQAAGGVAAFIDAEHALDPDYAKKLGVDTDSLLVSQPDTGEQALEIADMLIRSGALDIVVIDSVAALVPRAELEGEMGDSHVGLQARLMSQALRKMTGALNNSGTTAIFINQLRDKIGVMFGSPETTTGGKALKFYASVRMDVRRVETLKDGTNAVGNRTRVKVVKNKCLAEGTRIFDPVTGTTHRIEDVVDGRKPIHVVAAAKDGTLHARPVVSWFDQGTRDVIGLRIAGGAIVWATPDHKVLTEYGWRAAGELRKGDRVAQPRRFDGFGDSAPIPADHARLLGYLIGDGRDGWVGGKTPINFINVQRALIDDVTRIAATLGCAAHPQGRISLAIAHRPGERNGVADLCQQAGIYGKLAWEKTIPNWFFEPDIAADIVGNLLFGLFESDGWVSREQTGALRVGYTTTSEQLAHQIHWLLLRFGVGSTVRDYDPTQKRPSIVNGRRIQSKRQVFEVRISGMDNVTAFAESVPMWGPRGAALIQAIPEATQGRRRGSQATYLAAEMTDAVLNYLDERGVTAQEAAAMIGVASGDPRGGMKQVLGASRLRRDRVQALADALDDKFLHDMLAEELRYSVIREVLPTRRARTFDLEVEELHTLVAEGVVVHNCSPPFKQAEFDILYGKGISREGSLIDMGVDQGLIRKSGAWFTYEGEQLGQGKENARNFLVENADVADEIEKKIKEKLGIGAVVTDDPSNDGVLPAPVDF

[9] = biological target: T3, Replicative DNA helicase DnaB (Mycobacterium tuberculosis, UniProt P9WMR3); experiment: DnaB intein splicing inhibitors, dose response, biochemical, cell-free fluorescence (AID 449749); type: functional
T3 sequence (P9WMR3 whole entry): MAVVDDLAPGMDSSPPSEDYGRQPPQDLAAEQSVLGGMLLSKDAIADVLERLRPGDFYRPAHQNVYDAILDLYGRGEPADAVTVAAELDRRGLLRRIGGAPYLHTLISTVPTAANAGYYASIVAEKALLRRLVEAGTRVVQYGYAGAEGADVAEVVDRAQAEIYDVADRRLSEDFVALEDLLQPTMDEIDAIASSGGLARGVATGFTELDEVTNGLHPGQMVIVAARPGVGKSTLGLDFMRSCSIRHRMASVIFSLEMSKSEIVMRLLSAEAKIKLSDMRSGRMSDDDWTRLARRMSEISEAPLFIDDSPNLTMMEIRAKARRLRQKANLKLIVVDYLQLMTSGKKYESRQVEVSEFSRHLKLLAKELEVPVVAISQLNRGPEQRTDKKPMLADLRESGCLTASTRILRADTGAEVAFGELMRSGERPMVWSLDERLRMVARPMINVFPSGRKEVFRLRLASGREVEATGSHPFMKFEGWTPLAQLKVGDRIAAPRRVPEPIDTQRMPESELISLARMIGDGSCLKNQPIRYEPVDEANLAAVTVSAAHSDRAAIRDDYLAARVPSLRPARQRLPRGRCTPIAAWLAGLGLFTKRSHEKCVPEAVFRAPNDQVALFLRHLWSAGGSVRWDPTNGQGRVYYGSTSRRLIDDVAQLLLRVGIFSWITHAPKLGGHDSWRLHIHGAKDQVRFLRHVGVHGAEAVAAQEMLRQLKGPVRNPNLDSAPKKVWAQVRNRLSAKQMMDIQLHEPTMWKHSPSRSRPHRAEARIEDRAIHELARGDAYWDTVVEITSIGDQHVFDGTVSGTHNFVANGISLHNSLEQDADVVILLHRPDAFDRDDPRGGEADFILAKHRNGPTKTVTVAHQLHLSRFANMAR

[10] = cytotoxicity in HEK-293T cells, dose response, cytotoxicity control for TCR NF-kB inhibitor project, luminescence, T-cell screen hits (AID 489026); type: functional, cell-based;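 further: cells exposed to compound about 14 hours before the viability readout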
Leucine aminopeptidase = biological target: T4, Leucine aminopeptidase (Plasmodium falciparum 3D7, UniProt Q8IL11); experiment: P. falciparum M17LAP inhibitors, primary screen, biochemical, fluorogenic H-Leu-NHMec substrate, 1536-well (AID 1619); type: functional
T4 sequence (Q8IL11 whole entry): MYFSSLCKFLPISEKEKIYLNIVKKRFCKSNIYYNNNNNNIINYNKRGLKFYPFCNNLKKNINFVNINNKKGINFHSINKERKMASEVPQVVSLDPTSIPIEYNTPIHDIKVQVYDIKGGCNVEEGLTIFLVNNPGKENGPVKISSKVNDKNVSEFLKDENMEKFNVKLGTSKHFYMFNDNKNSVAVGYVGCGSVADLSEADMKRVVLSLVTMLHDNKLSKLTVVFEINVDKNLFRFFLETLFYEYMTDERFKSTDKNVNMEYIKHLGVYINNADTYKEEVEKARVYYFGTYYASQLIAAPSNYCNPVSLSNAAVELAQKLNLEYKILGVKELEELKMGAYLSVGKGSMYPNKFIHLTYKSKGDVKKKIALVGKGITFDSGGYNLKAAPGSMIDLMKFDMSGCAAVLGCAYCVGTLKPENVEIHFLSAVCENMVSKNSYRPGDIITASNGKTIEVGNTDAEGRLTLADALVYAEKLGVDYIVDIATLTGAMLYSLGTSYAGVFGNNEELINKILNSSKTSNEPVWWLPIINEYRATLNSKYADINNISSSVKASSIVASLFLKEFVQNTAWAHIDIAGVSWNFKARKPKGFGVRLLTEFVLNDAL

BJ [11] = experiment: cells; type: functional, cell-based; details: Homo sapiens
[12] = cytotoxicity toward DRD oncogenic fibroblasts, dose response, cell-based, non-viral oncogenic, luminescence (AID 1934); type: functional; details: Homo sapiens
[13] = HEp-2 cell cytotoxicity, dose response, cytotoxicity control for RSV inhibitor project, HTS (AID 2410); type: functional; details: human respiratory syncytial virus
BJ [14] = experiment: cytotoxicity toward BJ-TERT fibroblasts, dose response, cell-based, RAS-independent, luminescence (AID 1933); type: functional; details: Homo sapiens
BJ [15] = experiment: cytotoxicity toward BJ-TERT-LT-ST fibroblasts, dose response, cell-based, RAS-independent, luminescence (AID 1935); type: functional; details: Homo sapiens;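 further: BJ fibroblasts immortalized with TERT plus LT and ST oncogenes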
[16] = biological target: T5, Carboxy-terminal domain RNA polymerase II polypeptide A small phosphatase 1 (Homo sapiens, UniProt Q9GZU7); experiment: inhibitors of CTDSP1, concentration-response testing, biochemical assay, absorbance-based, actives from ultra-high-throughput screening (AID 540297); type: functional
T5 sequence (Q9GZU7 whole entry): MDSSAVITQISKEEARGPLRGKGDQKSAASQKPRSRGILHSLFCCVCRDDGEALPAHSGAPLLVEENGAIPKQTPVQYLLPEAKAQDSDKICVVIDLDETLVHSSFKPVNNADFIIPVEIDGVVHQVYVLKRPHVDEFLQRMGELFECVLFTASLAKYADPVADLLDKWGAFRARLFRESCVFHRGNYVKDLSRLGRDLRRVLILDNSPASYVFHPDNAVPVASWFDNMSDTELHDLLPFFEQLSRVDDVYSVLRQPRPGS

Fatty acid synthase [17] = biological target: T6, Fatty acid synthase (Homo sapiens, UniProt P49327); experiment: FAS thioesterase domain inhibitors, dose response, biochemical, kinetic fluorescence intensity (AID 624326); type: functional;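 further: rate of fluorescence rise from hydrolysis of a fluorogenic O-methyl fluorescein ester substrate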
Paired box protein Pax-8 = Paired box protein Pax-8 (Homo sapiens, UniProt Q06710); experiment: inhibitors of PAX8-driven TPO luciferase reporter, dose response, RMG-I cells, cherry-pick (AID 687027); type: functional, cell-based;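 further: luciferase reporter driven by Pax8 target thyroperoxidase promoter measured by SteadyGlo luminescence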
Fatty acid synthase [18] = biological target: T6, Fatty acid synthase; experiment: FAS thioesterase domain inhibitors, dose response, biochemical, endpoint fluorescence intensity, uHTS hits (AID 624327); type: functional;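 further: fluorescence from hydrolysis of an O-methyl fluorescein acyl ester substrate by the enzyme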

Chain of Glyceraldehyde-3-phosphate dehydrogenase (P04406 whole entry): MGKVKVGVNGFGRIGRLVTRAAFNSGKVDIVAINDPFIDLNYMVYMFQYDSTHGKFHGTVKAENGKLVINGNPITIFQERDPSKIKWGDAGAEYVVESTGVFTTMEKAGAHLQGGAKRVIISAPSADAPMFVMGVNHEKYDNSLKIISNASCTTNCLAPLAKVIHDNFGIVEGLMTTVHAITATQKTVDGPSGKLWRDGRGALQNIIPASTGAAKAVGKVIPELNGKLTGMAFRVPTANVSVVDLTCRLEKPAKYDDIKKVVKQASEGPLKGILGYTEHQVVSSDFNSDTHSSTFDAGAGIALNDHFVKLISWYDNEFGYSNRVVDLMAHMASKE
Chain of ATP-dependent molecular chaperone HSP82 (C4YTQ8 whole entry): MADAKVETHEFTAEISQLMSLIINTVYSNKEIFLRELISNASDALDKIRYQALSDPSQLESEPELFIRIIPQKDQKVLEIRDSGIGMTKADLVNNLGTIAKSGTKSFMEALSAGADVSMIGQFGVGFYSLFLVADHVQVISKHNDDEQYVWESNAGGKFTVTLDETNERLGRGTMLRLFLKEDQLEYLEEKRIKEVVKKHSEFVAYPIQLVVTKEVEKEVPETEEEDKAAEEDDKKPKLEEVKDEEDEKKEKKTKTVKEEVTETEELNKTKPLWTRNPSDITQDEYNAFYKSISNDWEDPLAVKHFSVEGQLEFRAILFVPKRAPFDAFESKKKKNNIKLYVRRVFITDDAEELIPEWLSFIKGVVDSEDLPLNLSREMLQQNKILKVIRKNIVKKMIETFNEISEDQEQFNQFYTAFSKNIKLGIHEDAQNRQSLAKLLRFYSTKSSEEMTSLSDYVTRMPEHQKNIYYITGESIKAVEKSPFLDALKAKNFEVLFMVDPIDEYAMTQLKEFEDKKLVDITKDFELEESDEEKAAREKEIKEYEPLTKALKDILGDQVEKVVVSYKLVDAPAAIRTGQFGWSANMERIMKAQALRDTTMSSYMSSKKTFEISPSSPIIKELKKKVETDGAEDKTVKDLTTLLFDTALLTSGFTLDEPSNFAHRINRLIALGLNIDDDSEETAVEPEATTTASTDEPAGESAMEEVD
Chain of Genome polyprotein (P29990 2492-3391 limits assumed): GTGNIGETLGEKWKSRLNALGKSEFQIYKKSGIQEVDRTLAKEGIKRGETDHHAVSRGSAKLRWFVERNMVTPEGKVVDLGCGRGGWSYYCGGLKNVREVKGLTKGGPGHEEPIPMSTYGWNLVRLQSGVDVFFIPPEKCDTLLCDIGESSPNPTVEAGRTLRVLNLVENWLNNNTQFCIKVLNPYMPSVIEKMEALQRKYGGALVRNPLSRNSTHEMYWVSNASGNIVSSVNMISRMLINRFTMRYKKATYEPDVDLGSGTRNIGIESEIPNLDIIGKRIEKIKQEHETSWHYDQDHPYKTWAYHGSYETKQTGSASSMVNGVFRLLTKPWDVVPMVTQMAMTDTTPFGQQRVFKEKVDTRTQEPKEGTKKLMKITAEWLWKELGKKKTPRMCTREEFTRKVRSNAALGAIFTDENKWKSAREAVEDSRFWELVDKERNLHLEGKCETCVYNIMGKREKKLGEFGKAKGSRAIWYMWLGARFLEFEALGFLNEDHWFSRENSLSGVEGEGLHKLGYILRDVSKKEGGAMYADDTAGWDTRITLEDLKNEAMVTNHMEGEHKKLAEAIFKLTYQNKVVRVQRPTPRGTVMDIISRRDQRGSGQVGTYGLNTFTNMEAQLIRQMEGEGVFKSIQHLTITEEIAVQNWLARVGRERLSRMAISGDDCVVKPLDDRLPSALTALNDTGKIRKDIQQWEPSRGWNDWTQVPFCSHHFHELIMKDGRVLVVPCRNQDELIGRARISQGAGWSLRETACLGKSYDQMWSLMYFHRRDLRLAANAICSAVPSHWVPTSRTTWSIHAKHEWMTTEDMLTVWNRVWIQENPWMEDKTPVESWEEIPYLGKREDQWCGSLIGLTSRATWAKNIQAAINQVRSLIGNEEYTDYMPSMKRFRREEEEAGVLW
T6 sequence (P49327 whole entry, the tested form may be a part): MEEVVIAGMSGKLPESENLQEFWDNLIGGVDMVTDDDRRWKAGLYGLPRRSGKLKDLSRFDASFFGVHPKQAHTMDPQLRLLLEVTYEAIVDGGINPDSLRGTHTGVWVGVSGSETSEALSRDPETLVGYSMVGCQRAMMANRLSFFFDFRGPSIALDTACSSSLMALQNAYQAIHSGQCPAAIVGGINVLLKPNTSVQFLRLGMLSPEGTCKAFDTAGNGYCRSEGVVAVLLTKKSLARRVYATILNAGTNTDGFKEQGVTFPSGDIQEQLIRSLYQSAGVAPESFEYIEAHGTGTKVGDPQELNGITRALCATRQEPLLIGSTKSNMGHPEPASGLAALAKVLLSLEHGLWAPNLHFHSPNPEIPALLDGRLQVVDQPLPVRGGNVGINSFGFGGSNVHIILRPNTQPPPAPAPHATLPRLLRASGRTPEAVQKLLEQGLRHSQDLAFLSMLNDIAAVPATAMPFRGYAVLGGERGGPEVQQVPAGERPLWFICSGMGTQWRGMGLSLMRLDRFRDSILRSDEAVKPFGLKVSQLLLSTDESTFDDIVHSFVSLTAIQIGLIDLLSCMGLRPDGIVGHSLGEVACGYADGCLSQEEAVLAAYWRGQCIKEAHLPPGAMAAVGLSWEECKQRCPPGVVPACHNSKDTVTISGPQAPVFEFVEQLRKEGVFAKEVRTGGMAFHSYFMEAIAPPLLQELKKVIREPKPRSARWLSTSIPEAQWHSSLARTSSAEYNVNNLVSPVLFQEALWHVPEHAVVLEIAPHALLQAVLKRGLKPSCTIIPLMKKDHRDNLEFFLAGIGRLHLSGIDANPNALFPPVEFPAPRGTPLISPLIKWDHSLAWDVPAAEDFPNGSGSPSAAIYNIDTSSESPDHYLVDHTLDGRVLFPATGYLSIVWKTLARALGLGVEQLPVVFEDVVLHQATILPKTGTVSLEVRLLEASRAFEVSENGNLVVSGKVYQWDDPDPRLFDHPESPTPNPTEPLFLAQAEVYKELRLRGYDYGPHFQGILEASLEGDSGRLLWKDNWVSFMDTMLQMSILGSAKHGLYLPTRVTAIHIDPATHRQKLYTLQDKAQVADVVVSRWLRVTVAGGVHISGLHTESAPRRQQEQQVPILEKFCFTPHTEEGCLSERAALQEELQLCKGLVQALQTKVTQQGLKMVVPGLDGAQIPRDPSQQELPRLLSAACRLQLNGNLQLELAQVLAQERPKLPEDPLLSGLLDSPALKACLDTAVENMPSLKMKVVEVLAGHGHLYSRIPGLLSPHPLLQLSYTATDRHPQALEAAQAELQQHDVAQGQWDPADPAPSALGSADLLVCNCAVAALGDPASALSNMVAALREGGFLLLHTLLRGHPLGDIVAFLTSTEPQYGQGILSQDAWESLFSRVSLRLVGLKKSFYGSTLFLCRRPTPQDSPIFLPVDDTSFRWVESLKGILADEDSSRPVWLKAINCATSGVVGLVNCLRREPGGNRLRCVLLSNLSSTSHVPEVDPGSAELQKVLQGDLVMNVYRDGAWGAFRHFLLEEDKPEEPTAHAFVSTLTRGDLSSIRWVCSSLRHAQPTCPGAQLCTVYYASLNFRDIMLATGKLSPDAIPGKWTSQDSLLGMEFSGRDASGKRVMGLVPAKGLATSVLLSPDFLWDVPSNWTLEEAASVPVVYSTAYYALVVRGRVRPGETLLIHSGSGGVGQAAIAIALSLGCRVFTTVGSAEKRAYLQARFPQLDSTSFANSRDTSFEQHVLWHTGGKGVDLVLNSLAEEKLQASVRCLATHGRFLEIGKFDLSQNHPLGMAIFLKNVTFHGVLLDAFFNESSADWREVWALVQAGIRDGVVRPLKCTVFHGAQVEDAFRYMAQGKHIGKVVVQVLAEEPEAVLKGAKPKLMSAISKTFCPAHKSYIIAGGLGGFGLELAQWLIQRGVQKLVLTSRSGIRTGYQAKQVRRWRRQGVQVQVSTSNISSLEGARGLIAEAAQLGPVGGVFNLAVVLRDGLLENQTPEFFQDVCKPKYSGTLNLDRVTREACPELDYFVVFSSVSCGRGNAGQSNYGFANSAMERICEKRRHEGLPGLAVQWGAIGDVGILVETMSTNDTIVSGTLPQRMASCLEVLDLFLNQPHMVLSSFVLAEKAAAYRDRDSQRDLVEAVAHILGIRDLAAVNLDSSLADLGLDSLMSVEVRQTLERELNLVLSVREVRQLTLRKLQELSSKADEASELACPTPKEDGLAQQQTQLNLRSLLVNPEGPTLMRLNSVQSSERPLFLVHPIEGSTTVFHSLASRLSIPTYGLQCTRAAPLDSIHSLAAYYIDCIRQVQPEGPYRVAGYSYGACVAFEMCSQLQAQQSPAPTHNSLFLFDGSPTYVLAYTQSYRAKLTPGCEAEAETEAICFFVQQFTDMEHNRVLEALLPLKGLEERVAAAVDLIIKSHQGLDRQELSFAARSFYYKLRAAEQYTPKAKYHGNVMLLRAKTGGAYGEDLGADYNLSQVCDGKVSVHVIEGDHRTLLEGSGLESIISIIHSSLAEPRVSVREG
Chain of Paired box protein Pax-8 (Q06710 whole entry, the tested form may be a part): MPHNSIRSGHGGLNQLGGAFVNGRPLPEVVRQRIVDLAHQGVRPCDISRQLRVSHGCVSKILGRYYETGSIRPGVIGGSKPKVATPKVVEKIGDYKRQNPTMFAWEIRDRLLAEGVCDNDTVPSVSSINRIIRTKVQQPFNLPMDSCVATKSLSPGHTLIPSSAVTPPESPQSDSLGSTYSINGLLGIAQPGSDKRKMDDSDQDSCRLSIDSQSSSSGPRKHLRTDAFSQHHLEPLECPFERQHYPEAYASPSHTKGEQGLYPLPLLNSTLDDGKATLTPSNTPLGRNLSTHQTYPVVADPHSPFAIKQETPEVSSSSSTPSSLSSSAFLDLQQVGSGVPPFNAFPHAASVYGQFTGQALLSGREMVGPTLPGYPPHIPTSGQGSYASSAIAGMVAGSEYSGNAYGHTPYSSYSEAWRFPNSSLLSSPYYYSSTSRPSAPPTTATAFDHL

CC(C)c1ccc(NC(=S)NN(c2ccccc2)c2ccccc2)cc1
IC50 [1]: 793 nM (active)

COc1ccc(C(=O)N2c3ccccc3C=CC2C#N)cc1 (stereo not drawn)
EC50 [2]: > 160 µM (inconclusive) | EC50 [3]: > 150 µM (inactive) | EC50 [4]: > 180 µM (inactive) | EC50 [5]: 186 nM (active)

Cc1ccccc1-n1cnnc1SCC(=O)N1CCN(c2ccccc2)CC1
IC50 [6]: 36.3 µM (active)

Cc1ccc(S(=O)(=O)NN2C(=O)/C(=C/c3cccc(F)c3)SC2=S)cc1
IC50 (Genome polyprotein): 27.2 µM (active)

S=C1SCN(Cc2cccnc2)CN1Cc1ccccc1
CC50 [7]: 11 µM (active) | CC50 [8]: 15.2 µM (active) | IC50 (cells): 18.2 µM (active)

Cc1ccc(N2C(=O)C(Cl)=C(N3CCN(C)CC3)C2=O)c(C)c1
IC50 (Genome polyprotein): 40.5 µM (active) | EC50 (Protein RecA): 2.35 µM (active) | AC50 [9]: 8.01 µM (active)

CSC(=Nc1ccc(Br)cc1F)NS(=O)(=O)c1cccs1
EC50 [2]: > 150 µM (inactive) | EC50 [3]: 18.6 µM (active) | EC50 [4]: > 180 µM (inactive) | EC50 [5]: 239 nM (active)

O=C(Oc1cc2oc(=O)c3c(c2cc1Cl)CCCC3)c1cccs1
EC50 [2]: > 150 µM (inactive) | EC50 [3]: 21.4 µM (active) | EC50 [4]: > 180 µM (inactive) | EC50 [5]: 1120 nM (active)

CCN1CCN(C2=C(Cl)C(=O)N(c3ccnc(Cl)c3)C2=O)CC1
IC50 [6]: > 50 µM (inconclusive)

CCOc1ccccc1C(=O)Nc1ccc2nc(N3CCN(c4ncccn4)CC3)cc(C)c2c1
IC50 [10]: > 80 µM (inactive)

N#CC1=C(N)Oc2[nH]nc(-c3ccccc3)c2C1c1cccnc1 (stereo not drawn)
IC50 (Leucine aminopeptidase): 60.4 µM (active) | EC50 (Protein RecA): 1.79 µM (active) | AC50 [9]: 6.14 µM (active)

COc1ccc(CN2C(=O)/C(=C/c3ccncc3)SC2=S)cc1
CC50 [7]: 7.52 µM (active) | EC50 (BJ [11]): > 150 µM (inconclusive) | CC50 [8]: 18 µM (active) | IC50 (cells): 21.2 µM (active) | EC50 [12]: 16.9 µM (active) | CC50 [13]: 10.3 µM (active) | EC50 (BJ [14]): 13.8 µM (active) | EC50 (BJ [15]): > 75 µM (inconclusive)

Cc1oc2c(C)c3oc(=O)c(CC(=O)N[C@@H](CC(C)C)C(=O)N[C@@H](Cc4ccccc4)C(=O)O)c(C)c3cc2c1C
IC50 [16]: 4.59 µM (active) | IC50 (Genome polyprotein): 72.6 µM (active)

CSc1ccc(COC(=O)c2cc([N+](=O)[O-])ccc2N2CCOCC2)cc1
EC50 (BJ [11]): 1.09 µM (active) | IC50 (Fatty acid synthase [17]): 3.26 µM (active) | IC50 [10]: > 80 µM (inactive) | AC50 (Paired box protein Pax-8): 619 nM (active) | EC50 [12]: 0.653 µM (active) | IC50 (Fatty acid synthase [18]): 4.08 µM (active) | EC50 (BJ [14]): 0.652 µM (inconclusive) | EC50 (BJ [15]): 0.385 µM (active)

O=C1C2CC=CCC2C(=O)N1c1nc(-c2cccnc2)n[nH]1 (stereo not drawn)
IC50 [6]: > 100 µM (not active)

CCn1c(NC(=O)C2CCCCC2)nc2ccccc21
CC50 [7]: > 20 µM (active) | CC50 [8]: 31.7 µM (active) | IC50 (cells): 1.33 µM (active)
